Measurements reported in PubChem BioAssay (NCI).
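The compound was tested at five concentrations on cells cultured in 96-well plates, with a 48-hour exposure period. GI50 = concentration required for 50% inhibition of growth. TGI is the concentration that stops growth completely.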

Assays:
Experiment in all cases: growth of human tumour cells (NCI), 48 h
RPMI-8226 leukemia = system: RPMI-8226 leukemia
UACC-257 melanoma = system: UACC-257 melanoma
HL-60(TB) leukemia = system: HL-60(TB) leukemia
MALME-3M melanoma = system: MALME-3M melanoma
NCI-H23 lung = system: NCI-H23 lung
NCI-H522 lung = system: NCI-H522 lung
SW-620 colon = system: SW-620 colon
DU-145 prostate = system: DU-145 prostate
MCF7 breast = system: MCF7 breast
SN12C renal = system: SN12C renal
K-562 leukemia = system: K-562 leukemia
HCT-15 colon = system: HCT-15 colon
T-47D breast = system: T-47D breast
OVCAR-8 ovarian = system: OVCAR-8 ovarian
786-0 renal = system: 786-0 renal
A498 renal = system: A498 renal
MOLT-4 leukemia = system: MOLT-4 leukemia
M14 melanoma = system: M14 melanoma
TK-10 renal = system: TK-10 renal
COLO 205 colon = system: COLO 205 colon
PC-3 prostate = system: PC-3 prostate
U251 CNS = system: U251 CNS
CAKI-1 renal = system: CAKI-1 renal
MDA-MB-231 breast = system: MDA-MB-231 breast
A549 NSCLC = system: A549 NSCLC
SK-MEL-28 melanoma = system: SK-MEL-28 melanoma
SK-MEL-2 melanoma = system: SK-MEL-2 melanoma
SK-MEL-5 melanoma = system: SK-MEL-5 melanoma
ACHN renal = system: ACHN renal
UO-31 renal = system: UO-31 renal
SK-OV-3 ovarian = system: SK-OV-3 ovarian
HOP-92 NSCLC = system: HOP-92 NSCLC
IGROV1 ovarian = system: IGROV1 ovarian
NCI-H226 lung = system: NCI-H226 lung
NCI/ADR-RES ovarian = system: NCI/ADR-RES ovarian
OVCAR-3 ovarian = system: OVCAR-3 ovarian
KM12 colon = system: KM12 colon
BT-549 breast = system: BT-549 breast
SR leukemia = system: SR leukemia
RXF 393 renal = system: RXF 393 renal
HOP-62 NSCLC = system: HOP-62 NSCLC
SF-539 CNS = system: SF-539 CNS
LOX IMVI melanoma = system: LOX IMVI melanoma
SNB-19 CNS = system: SNB-19 CNS
OVCAR-5 ovarian = system: OVCAR-5 ovarian
HCT-116 colon = system: HCT-116 colon
OVCAR-4 ovarian = system: OVCAR-4 ovarian
HCC-2998 colon = system: HCC-2998 colon
SF-295 CNS = system: SF-295 CNS
CCRF-CEM leukemia = system: CCRF-CEM leukemia
NCI-H460 lung = system: NCI-H460 lung
UACC-62 melanoma = system: UACC-62 melanoma
EKVX NSCLC = system: EKVX NSCLC
MDA-MB-435 = system: MDA-MB-435
SF-268 CNS = system: SF-268 CNS
HT29 colon = system: HT29 colon
HS 578T breast = system: HS 578T breast
SNB-75 CNS = system: SNB-75 CNS

## Nc1nc2ccccc2c2c1S(=O)(=O)c1ccc(Cl)cc1C2=O
RPMI-8226 leukemia
  GI50: 0.719 µM
  TGI: 3.31 µM
UACC-257 melanoma
  GI50: 1.96 µM
  TGI: > 50 µM
HL-60(TB) leukemia
  GI50: 1.39 µM
  TGI: 3.7 µM
MALME-3M melanoma
  GI50: 1.23 µM
  TGI: 4.25 µM
NCI-H23 lung
  GI50: 2.48 µM
  TGI: > 50 µM
NCI-H522 lung
  GI50: 0.86 µM
  TGI: 2.2 µM
SW-620 colon
  GI50: 1.02 µM
  TGI: 2.25 µM
DU-145 prostate
  GI50: 2.13 µM
  TGI: > 50 µM
MCF7 breast
  GI50: 1.49 µM
  TGI: > 50 µM
SN12C renal
  GI50: 1.16 µM
  TGI: 4.54 µM
K-562 leukemia
  GI50: 1.45 µM
  TGI: > 50 µM
HCT-15 colon
  GI50: 0.812 µM
  TGI: 2.31 µM
T-47D breast
  GI50: 1.24 µM
  TGI: > 50 µM
OVCAR-8 ovarian
  GI50: 1.54 µM
  TGI: > 50 µM
786-0 renal
  GI50: 5.93 µM
  TGI: > 50 µM
A498 renal
  GI50: 2.37 µM
  TGI: 22.5 µM
MOLT-4 leukemia
  GI50: 1.42 µM
  TGI: 8.86 µM
M14 melanoma
  GI50: 2.45 µM
  TGI: 35.4 µM
TK-10 renal
  GI50: 1.93 µM
  TGI: > 50 µM
COLO 205 colon
  GI50: 1.94 µM
  TGI: 6.85 µM
PC-3 prostate
  GI50: 0.89 µM
  TGI: > 50 µM
U251 CNS
  GI50: 1.79 µM
  TGI: 18.3 µM
CAKI-1 renal
  GI50: 1.59 µM
  TGI: > 50 µM
MDA-MB-231 breast
  GI50: 1.57 µM
  TGI: > 50 µM
A549 NSCLC
  GI50: 3.26 µM
  TGI: > 50 µM
SK-MEL-28 melanoma
  GI50: 2.09 µM
  TGI: 14.1 µM
SK-MEL-2 melanoma
  GI50: 2.27 µM
  TGI: > 50 µM
SK-MEL-5 melanoma
  GI50: 2.02 µM
  TGI: 30.9 µM
ACHN renal
  GI50: 1.38 µM
  TGI: > 50 µM
UO-31 renal
  GI50: 1.21 µM
  TGI: 9.38 µM
SK-OV-3 ovarian
  GI50: 6.9 µM
  TGI: 44.8 µM
HOP-92 NSCLC
  GI50: 0.542 µM
  TGI: 3.63 µM
IGROV1 ovarian
  GI50: 1.7 µM
  TGI: > 50 µM
NCI-H226 lung
  GI50: 2.14 µM
  TGI: 17.3 µM
NCI/ADR-RES ovarian
  GI50: 1.46 µM
  TGI: 6.27 µM
OVCAR-3 ovarian
  GI50: 1.14 µM
  TGI: 3.33 µM
KM12 colon
  GI50: 1.86 µM
  TGI: 13.3 µM
BT-549 breast
  GI50: 1.91 µM
  TGI: > 50 µM
SR leukemia
  GI50: 0.917 µM
  TGI: > 50 µM
RXF 393 renal
  GI50: 0.784 µM
  TGI: 2.05 µM
HOP-62 NSCLC
  GI50: 2.31 µM
  TGI: > 50 µM
SF-539 CNS
  GI50: 1.3 µM
  TGI: 3.62 µM
LOX IMVI melanoma
  GI50: 0.873 µM
  TGI: 1.84 µM
SNB-19 CNS
  GI50: 2.52 µM
  TGI: > 50 µM
OVCAR-5 ovarian
  GI50: 1.42 µM
  TGI: 4.62 µM
HCT-116 colon
  GI50: 1.87 µM
  TGI: 32 µM
OVCAR-4 ovarian
  GI50: 1.46 µM
  TGI: 10.8 µM
HCC-2998 colon
  GI50: 2.03 µM
  TGI: 29.8 µM
SF-295 CNS
  GI50: 2.22 µM
  TGI: > 50 µM
CCRF-CEM leukemia
  GI50: 0.623 µM
  TGI: 4 µM
NCI-H460 lung
  GI50: 1.68 µM
  TGI: 6.63 µM
UACC-62 melanoma
  GI50: 1.68 µM
  TGI: 24.8 µM
EKVX NSCLC
  GI50: 1.84 µM
  TGI: > 50 µM
MDA-MB-435
  GI50: 1.65 µM
  TGI: > 50 µM
SF-268 CNS
  GI50: 1.83 µM
  TGI: > 50 µM
HT29 colon
  GI50: 1.63 µM
  TGI: 5.88 µM

## CCN(Cc1ccc(F)cc1)c1ccc(CO)c(C(F)(F)F)c1
HS 578T breast
  GI50: 14.1 µM
  TGI: 40.3 µM
RPMI-8226 leukemia
  GI50: 11.7 µM
  TGI: 45.2 µM
UACC-257 melanoma
  GI50: 1.76 µM
  TGI: 7.01 µM
HL-60(TB) leukemia
  GI50: 15.8 µM
  TGI: 41.9 µM
SNB-75 CNS
  GI50: 14.3 µM
  TGI: 30.6 µM
MALME-3M melanoma
  GI50: 15.5 µM
  TGI: 30.3 µM
NCI-H23 lung
  GI50: 11.1 µM
  TGI: 24.2 µM
NCI-H522 lung
  GI50: 12.5 µM
  TGI: 26.9 µM
SW-620 colon
  GI50: 11.2 µM
  TGI: 23.5 µM
DU-145 prostate
  GI50: 16.7 µM
  TGI: 31.8 µM
MCF7 breast
  GI50: 5.77 µM
  TGI: 19.2 µM
SN12C renal
  GI50: 12.9 µM
  TGI: 25.5 µM
K-562 leukemia
  GI50: 10.4 µM
  TGI: 52.1 µM
HCT-15 colon
  GI50: 14.4 µM
  TGI: 29.4 µM
T-47D breast
  GI50: 1.84 µM
  TGI: 10.4 µM
OVCAR-8 ovarian
  GI50: 14.3 µM
  TGI: 27.3 µM
786-0 renal
  GI50: 12.4 µM
  TGI: 26.2 µM
A498 renal
  GI50: 0.122 µM
  TGI: 0.287 µM
MOLT-4 leukemia
  GI50: 15.2 µM
  TGI: 43.5 µM
M14 melanoma
  GI50: 15.1 µM
  TGI: 30.9 µM
COLO 205 colon
  GI50: 14.4 µM
  TGI: 27.5 µM
PC-3 prostate
  GI50: 12.1 µM
  TGI: 25.7 µM
U251 CNS
  GI50: 4.1 µM
  TGI: 18.4 µM
CAKI-1 renal
  GI50: 13.9 µM
  TGI: 28.7 µM
MDA-MB-231 breast
  GI50: 14.3 µM
  TGI: 27.3 µM
A549 NSCLC
  GI50: 10.9 µM
  TGI: 23.5 µM
SK-MEL-28 melanoma
  GI50: 14.1 µM
  TGI: 27.1 µM
SK-MEL-2 melanoma
  GI50: 15.1 µM
  TGI: 32.5 µM
SK-MEL-5 melanoma
  GI50: 13.9 µM
  TGI: 26.8 µM
ACHN renal
  GI50: 14.6 µM
  TGI: 27.8 µM
UO-31 renal
  GI50: 12.5 µM
  TGI: 25 µM
SK-OV-3 ovarian
  GI50: 15.8 µM
  TGI: 30.8 µM
HOP-92 NSCLC
  GI50: 2.29 µM
  TGI: 17.8 µM
IGROV1 ovarian
  GI50: 1.56 µM
  TGI: 11.6 µM
NCI/ADR-RES ovarian
  GI50: 13.7 µM
  TGI: 28 µM
OVCAR-3 ovarian
  GI50: 6.91 µM
  TGI: 19.6 µM
KM12 colon
  GI50: 15.2 µM
  TGI: 29.3 µM
BT-549 breast
  GI50: 15.1 µM
  TGI: 28.3 µM
RXF 393 renal
  GI50: 14.9 µM
  TGI: 28.3 µM
HOP-62 NSCLC
  GI50: 9.23 µM
  TGI: 21.2 µM
SF-539 CNS
  GI50: 15.5 µM
  TGI: 28.9 µM
LOX IMVI melanoma
  GI50: 17.5 µM
  TGI: 31.3 µM
SNB-19 CNS
  GI50: 15.3 µM
  TGI: 28.6 µM
OVCAR-5 ovarian
  GI50: 1.28 µM
  TGI: 5 µM
HCT-116 colon
  GI50: 1.54 µM
  TGI: 12.8 µM
OVCAR-4 ovarian
  GI50: 1.79 µM
  TGI: 12.8 µM
HCC-2998 colon
  GI50: 14.9 µM
  TGI: 28.2 µM
SF-295 CNS
  GI50: 3.3 µM
  TGI: 16.5 µM
CCRF-CEM leukemia
  GI50: 14.7 µM
  TGI: 43.7 µM
NCI-H460 lung
  GI50: 3.43 µM
  TGI: 15.7 µM
UACC-62 melanoma
  GI50: 1.41 µM
  TGI: 7.33 µM
MDA-MB-435
  GI50: 16 µM
  TGI: 29.4 µM
SF-268 CNS
  GI50: 15.5 µM
  TGI: 31.3 µM
HT29 colon
  GI50: 14.3 µM
  TGI: 31.2 µM
